# According to paper PMC3794980, “Identification of Conserved and HLA Promiscuous DENV3 T-Cell Epitopes” (PLoS Neglected Tropical Diseases, 2013):
# How the values were obtained:
# [1] = molecular target: DRB5*0101 (Homo sapiens, UniProt P01903+Q30154); experiment: biochemical; format: binding
# [2] = molecular target: DRB3*0101 (Homo sapiens, UniProt P01903+P79483); experiment: biochemical; format: binding
Compound,IC50 [1] [µM],IC50 [2] [µM]
CC(C)C[C@H](NC(=O)[C@H](CC(=O)O)NC(=O)[C@H](Cc1ccccc1)NC(=O)[C@@H](N)Cc1ccccc1)C(=O)N1CCC[C@H]1C(=O)N[C@@H](CC(C)C)C(=O)N1CCC[C@H]1C(=O)N[C@@H](Cc1c[nH]c2ccccc12)C(=O)N[C@H](C(=O)N[C@@H](CO)C(=O)NCC(=O)N[C@@H](C)C(=O)N[C@H](C(=O)N[C@H](C(=O)N[C@@H](CCC(=O)O)C(=O)O)[C@@H](C)O)[C@@H](C)O)[C@@H](C)O [Envelope 211-225],16.2,
CC[C@H](C)[C@H](NC(=O)CNC(=O)[C@@H](NC(=O)[C@H](C)NC(=O)[C@@H](NC(=O)[C@H](CS)NC(=O)[C@@H](N)CO)[C@@H](C)CC)[C@@H](C)CC)C(=O)N[C@H](C(=O)N[C@H](C(=O)N[C@@H](CC(C)C)C(=O)N[C@@H](Cc1ccc(O)cc1)C(=O)N[C@@H](CC(C)C)C(=O)NCC(=O)N[C@@H](C)C(=O)N[C@H](C(=O)N[C@H](C(=O)N[C@@H](CCC(N)=O)C(=O)N[C@@H](C)C(=O)O)C(C)C)C(C)C)[C@@H](C)O)[C@@H](C)CC [Envelope 476-493],,3.83
CC[C@H](C)[C@H](NC(=O)CNC(=O)[C@H](CO)NC(=O)CNC(=O)[C@H](CS)NC(=O)[C@H](CCCCN)NC(=O)[C@H](CC(C)C)NC(=O)[C@H](CCC(=O)O)NC(=O)[C@H](CCCCN)NC(=O)CNC(=O)[C@H](CCCCN)NC(=O)[C@H](Cc1c[nH]c2ccccc12)NC(=O)[C@H](CC(N)=O)NC(=O)[C@@H](NC(=O)[C@@H](N)C(C)C)[C@@H](C)CC)C(=O)O [NS1 5-19],15.8,6.3
CC[C@H](C)[C@H](NC(=O)[C@@H](NC(=O)[C@H](Cc1ccccc1)NC(=O)[C@H](CO)NC(=O)[C@H](CO)NC(=O)[C@H](CC(N)=O)NC(=O)[C@H](CCC(N)=O)NC(=O)[C@@H](NC(=O)[C@H](CCC(=O)O)NC(=O)[C@H](C)NC(=O)[C@@H](NC(=O)[C@@H](NC(=O)[C@@H](NC(=O)[C@H](CCCCN)NC(=O)[C@H](C)N)[C@@H](C)CC)C(C)C)[C@@H](C)O)[C@@H](C)O)[C@@H](C)CC)C(=O)O [NS1 121-135],9.46,1.24
CC[C@H](C)[C@H](NC(=O)[C@@H](NC(=O)[C@@H](N)Cc1ccccc1)[C@@H](C)CC)C(=O)N[C@@H](CC(=O)O)C(=O)NCC(=O)N1CCC[C@H]1C(=O)N[C@@H](CC(N)=O)C(=O)N[C@H](C(=O)N1CCC[C@H]1C(=O)N[C@@H](CCC(=O)O)C(=O)N[C@@H](CS)C(=O)N1CCC[C@H]1C(=O)N[C@@H](CO)C(=O)N[C@@H](C)C(=O)N[C@@H](CO)C(=O)O)[C@@H](C)O [NS1 133-147],6.91,
CC[C@H](C)[C@H](NC(=O)[C@@H]1CCCN1C(=O)CNC(=O)[C@H](C)NC(=O)[C@H](CC(C)C)NC(=O)[C@H](CO)NC(=O)[C@H](CCCCN)NC(=O)[C@@H]1CCCN1C(=O)[C@@H](NC(=O)[C@@H](NC(=O)[C@H](CCSC)NC(=O)[C@H](CC(=O)O)NC(=O)[C@H](CO)NC(=O)[C@H](CCC(=O)O)NC(=O)[C@@H](N)CC(C)C)[C@@H](C)CC)[C@@H](C)CC)C(=O)O [NS1 237-251],14.8,2.71
CC(C)C[C@H](NC(=O)[C@H](CCCNC(=N)N)NC(=O)[C@H](CCCCN)NC(=O)CNC(=O)[C@H](CC(N)=O)NC(=O)[C@H](Cc1ccc(O)cc1)NC(=O)[C@@H](NC(=O)[C@H](CC(C)C)NC(=O)[C@@H](N)C(C)C)[C@@H](C)O)C(=O)N[C@@H](CCC(=O)O)C(=O)N1CCC[C@H]1C(=O)N[C@@H](CC(N)=O)C(=O)N[C@@H](Cc1c[nH]c2ccccc12)C(=O)N[C@@H](C)C(=O)N[C@@H](CO)C(=O)O [NS3 57-71],3.76,5.43
CSCC[C@H](NC(=O)[C@@H](NC(=O)[C@H](CCC(N)=O)NC(=O)[C@H](Cc1ccccc1)NC(=O)[C@H](CC(N)=O)NC(=O)[C@H](CCCCN)NC(=O)[C@@H]1CCCN1C(=O)[C@H](CC(N)=O)NC(=O)[C@H](CCCCN)NC(=O)CNC(=O)[C@@H]1CCCN1C(=O)[C@@H](N)CCC(=O)O)[C@@H](C)O)C(=O)N1CCC[C@H]1C(=O)NCC(=O)N[C@H](C(=O)O)[C@@H](C)O [NS3 101-115],1.08,4.12
CC[C@H](C)[C@H](NC(=O)[C@@H]1CCCN1C(=O)[C@H](CO)NC(=O)CNC(=O)[C@H](CO)NC(=O)[C@@H](NC(=O)CNC(=O)[C@@H]1CCCN1C(=O)[C@H](CCCCN)NC(=O)[C@H](Cc1ccccc1)NC(=O)[C@H](CC(=O)O)NC(=O)[C@H](CC(C)C)NC(=O)[C@H](C)NC(=O)[C@@H](NC(=O)[C@H](C)N)[C@@H](C)CC)[C@@H](C)O)C(=O)O [NS3 125-139],4.35,9.22
CC[C@H](C)[C@H](NC(=O)[C@@H](NC(=O)[C@@H]1CCCN1C(=O)[C@@H](N)CO)[C@@H](C)CC)C(=O)N[C@@H](CC(N)=O)C(=O)N[C@@H](CCCNC(=N)N)C(=O)N[C@@H](CCC(=O)O)C(=O)NCC(=O)N[C@@H](CCCCN)C(=O)N[C@H](C(=O)N[C@H](C(=O)NCC(=O)N[C@@H](CC(C)C)C(=O)N[C@@H](Cc1ccc(O)cc1)C(=O)NCC(=O)O)C(C)C)C(C)C [NS3 137-151],1.68,9.58
CC[C@H](C)[C@H](NC(=O)[C@@H](NC(=O)[C@H](CC(C)C)NC(=O)[C@H](CC(N)=O)NC(=O)[C@H](CCCNC(=N)N)NC(=O)[C@H](CCCCN)NC(=O)[C@H](CCCCN)NC(=O)[C@H](Cc1ccccc1)NC(=O)[C@H](CCSC)NC(=O)[C@H](CCC(=O)O)NC(=O)[C@H](CCC(=O)O)NC(=O)[C@H](CCC(=O)O)NC(=O)[C@H](CC(C)C)NC(=O)[C@H](CCC(=O)O)NC(=O)[C@@H]1CCCN1)[C@@H](C)O)C(=O)O [NS3 177-191],,10.7
CC[C@H](C)[C@H](N)C(=O)N[C@@H](CCCNC(=N)N)C(=O)N[C@@H](Cc1ccc(O)cc1)C(=O)N[C@@H](CCC(N)=O)C(=O)N[C@H](C(=O)N[C@H](C(=O)N[C@@H](C)C(=O)N[C@H](C(=O)N[C@@H](CCCCN)C(=O)N[C@@H](CO)C(=O)N[C@@H](CCC(=O)O)C(=O)N[C@@H](Cc1c[nH]cn1)C(=O)N[C@H](C(=O)NCC(=O)N[C@@H](CCCNC(=N)N)C(=O)O)[C@@H](C)O)[C@@H](C)O)[C@@H](C)O)[C@@H](C)O [NS3 241-255],0.017,12.8
CC[C@H](C)[C@H](NC(=O)[C@H](CO)NC(=O)[C@@H]1CCCN1C(=O)[C@@H](NC(=O)[C@H](Cc1ccccc1)NC(=O)[C@H](Cc1c[nH]c2ccccc12)NC(=O)[C@@H](NC(=O)[C@@H](NC(=O)[C@H](CCCCN)NC(=O)CN)[C@@H](C)O)C(C)C)C(C)C)C(=O)N[C@@H](CCCCN)C(=O)N[C@@H](C)C(=O)NCC(=O)N[C@@H](CC(N)=O)C(=O)N[C@@H](CC(=O)O)C(=O)O [NS3 357-371],0.273,
CC[C@H](C)[C@H](NC(=O)[C@H](CC(=O)O)NC(=O)[C@@H](NC(=O)[C@@H](NC(=O)[C@@H](NC(=O)[C@@H](NC(=O)[C@@H](N)Cc1ccccc1)C(C)C)C(C)C)[C@@H](C)O)[C@@H](C)O)C(=O)N[C@@H](CO)C(=O)N[C@@H](CCC(=O)O)C(=O)N[C@@H](CCSC)C(=O)NCC(=O)N[C@@H](C)C(=O)N[C@@H](CC(N)=O)C(=O)N[C@@H](Cc1ccccc1)C(=O)N[C@@H](CCCCN)C(=O)O [NS3 405-419],,1.59
CC[C@H](C)[C@H](NC(=O)[C@@H](NC(=O)[C@H](CCCNC(=N)N)NC(=O)[C@H](CC(=O)O)NC(=O)[C@H](C)NC(=O)[C@H](CCCCN)NC(=O)[C@H](Cc1ccccc1)NC(=O)[C@@H](N)CC(N)=O)C(C)C)C(=O)N[C@@H](CC(=O)O)C(=O)N1CCC[C@H]1C(=O)N[C@@H](CCCNC(=N)N)C(=O)N[C@@H](CCCNC(=N)N)C(=O)N[C@@H](CS)C(=O)N[C@@H](CC(C)C)C(=O)N[C@@H](CCCCN)C(=O)O [NS3 417-431],,0.632
CC[C@H](C)[C@H](NC(=O)[C@H](Cc1ccc(O)cc1)NC(=O)[C@H](CCC(N)=O)NC(=O)[C@H](CC(=O)O)NC(=O)[C@H](CC(N)=O)NC(=O)[C@H](CCC(=O)O)NC(=O)[C@H](CCCCN)NC(=O)[C@H](CCC(N)=O)NC(=O)[C@@H]1CCCN1C(=O)[C@@H](N)CC(N)=O)C(=O)N[C@@H](Cc1ccccc1)C(=O)N[C@H](C(=O)NCC(=O)N[C@@H](CCC(N)=O)C(=O)N1CCC[C@H]1C(=O)O)[C@@H](C)O [NS3 465-479],,10.6
CC[C@H](C)[C@H](NC(=O)CNC(=O)[C@H](CO)NC(=O)[C@H](CCCCN)NC(=O)[C@@H](N)CCCCN)C(=O)N[C@H](C(=O)N[C@@H](CCC(=O)O)C(=O)N[C@H](C(=O)N[C@@H](CC(=O)O)C(=O)N[C@@H](CCCNC(=N)N)C(=O)N[C@H](C(=O)N[C@@H](CCC(=O)O)C(=O)N[C@@H](C)C(=O)N[C@@H](CCCCN)C(=O)N[C@@H](CCC(=O)O)C(=O)NCC(=O)N[C@@H](CC(C)C)C(=O)O)[C@@H](C)O)C(C)C)[C@@H](C)O [NS5 29-45],,5.38
CC[C@H](C)[C@H](NC(=O)[C@H](CS)NC(=O)[C@H](Cc1ccccc1)NC(=O)[C@H](CCC(N)=O)NC(=O)[C@H](CC(N)=O)NC(=O)[C@H](CC(N)=O)NC(=O)[C@H](CCCCN)NC(=O)[C@H](CC(C)C)NC(=O)[C@H](Cc1c[nH]c2ccccc12)NC(=O)[C@@H]1CCCN1C(=O)[C@H](CCC(=O)O)NC(=O)[C@@H](NC(=O)[C@H](CCSC)NC(=O)[C@H](CCCCN)NC(=O)[C@@H](N)CC(C)C)C(C)C)C(=O)N[C@@H](CCCCN)C(=O)N[C@H](C(=O)O)C(C)C [NS5 165-181],0.02,
CSCC[C@H](NC(=O)[C@H](C)NC(=O)[C@H](CCSC)NC(=O)[C@H](CCC(N)=O)NC(=O)[C@@H](NC(=O)[C@@H](NC(=O)[C@H](CCSC)NC(=O)[C@@H]1CCCN1C(=O)[C@@H](NC(=O)[C@@H](NC(=O)[C@H](CC(=O)O)NC(=O)[C@H](Cc1c[nH]c2ccccc12)NC(=O)[C@@H]1CCCN1)C(C)C)C(C)C)C(C)C)[C@@H](C)O)C(=O)N[C@H](C(=O)N[C@@H](CC(=O)O)C(=O)N[C@H](C(=O)N[C@H](C(=O)O)[C@@H](C)O)[C@@H](C)O)[C@@H](C)O [NS5 330-346],1.04,
CC[C@H](C)[C@H](NC(=O)[C@@H]1CCCN1C(=O)[C@H](CCCCN)NC(=O)[C@@H](NC(=O)[C@@H](NC(=O)[C@H](CS)NC(=O)[C@@H](N)CC(=O)O)C(C)C)C(C)C)C(=O)N[C@@H](CC(=O)O)C(=O)N[C@@H](CC(=O)O)C(=O)N[C@@H](CCCNC(=N)N)C(=O)N[C@@H](Cc1ccccc1)C(=O)N[C@@H](C)C(=O)N[C@@H](CC(N)=O)C(=O)N[C@@H](C)C(=O)N[C@@H](CC(C)C)C(=O)N[C@@H](CC(C)C)C(=O)N[C@@H](C)C(=O)O [NS5 664-680],,4.09
